Holding throughout (type): biochemical
The target of assay [1] is T1, Factor XIa (Homo sapiens, UniProt P03951). Nature of the assay: Kinetic parameters of the peptide substrate with Factor XIa (substrate inhibition model). Conditions: substrate of FXIa. From the text:
(§1) A fluorescence intensity (FLINT) based assay was used to monitor inhibition of Factor XIa. The peptide substrate, 5Fam-KLTRAETV-K5Tamra (purchased from New England Peptide) was chosen based on the FXI sequence. Conversion of zymogen FXI to its activated form, FXIa, occurs by proteolytic cleavage by […] at two sites, Arg146 and Arg180. The custom peptide used in this assay was based on the Arg146 cleavage site of FXI. The peptide substrate was designed with a fluorophore-quencher pair, where the fluorescence is quenched until FXIa cleaves the 8-mer peptide after the Arg residue.

The target of assay [2] is T2, human plasma kallikrein (Homo sapiens, UniProt P03952). The assay can be described thus: Kallikrein inhibition assay (FLINT) with quenched AMC peptide substrate. Conditions: 30 min preincubation; 50 μM Z-Gly-Pro-Arg-AMC substrate; 2 nM kallikrein; top compound concentration 1 μM. The source says: Biological Example 2: Kallikrein Inhibition Assay Utilizing a Quenched AMC Peptide Substrate
T2 sequence (P03952 391-638 limits assumed): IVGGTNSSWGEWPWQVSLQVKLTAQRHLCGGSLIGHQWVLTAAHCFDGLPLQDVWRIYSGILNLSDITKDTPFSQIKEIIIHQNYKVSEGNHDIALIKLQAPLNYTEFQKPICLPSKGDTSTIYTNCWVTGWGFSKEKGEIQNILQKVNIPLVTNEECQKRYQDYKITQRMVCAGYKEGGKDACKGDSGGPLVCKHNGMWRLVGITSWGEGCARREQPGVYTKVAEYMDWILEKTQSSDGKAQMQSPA
T2 sequence (P03952 20-390 partner limits assumed): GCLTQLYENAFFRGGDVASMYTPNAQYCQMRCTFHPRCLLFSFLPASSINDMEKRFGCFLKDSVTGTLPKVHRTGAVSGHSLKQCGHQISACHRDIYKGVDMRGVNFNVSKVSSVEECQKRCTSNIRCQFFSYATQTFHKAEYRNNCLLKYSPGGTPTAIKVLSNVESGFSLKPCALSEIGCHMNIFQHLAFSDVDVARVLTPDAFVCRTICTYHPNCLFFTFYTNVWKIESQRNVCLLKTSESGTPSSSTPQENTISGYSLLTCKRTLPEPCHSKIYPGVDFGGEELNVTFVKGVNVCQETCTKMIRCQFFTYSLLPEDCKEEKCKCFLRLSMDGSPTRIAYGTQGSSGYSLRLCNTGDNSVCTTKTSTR
(§2) A fluorescence intensity (FLINT) based assay was used to monitor inhibition of human plasma kallikrein. The peptide substrate, Z-Gly-Pro-Arg-AMC (Purchased from Bachem; Catalog #I-1150) was chosen based on its relatively low KM for kallikrein which enables running the assay at lower substrate concentrations to control background fluorescence.
The Kallikrein FLINT assay was used with the following Z-Gly-Pro-Arg-AMC assay buffer: 50 mM Tris, pH 7.5, 100 mM NaCl, 5 mM CaCl2, 0.1 mg/mL BSA, 0.03% CHAPS. Assay buffer was prepared by mixing all ingredients fresh. 2× Z-Gly-Pro-Arg-AMC peptide substrate was prepared by diluting 10 mM stock into 1× assay buffer for a 100 μM working concentration (50 μM final concentration). […]
Test compound(s) were run in an 11-point, 3-fold serial dilution with a final top compound concentration of 1 μM. […] The assay was run with kinetic (KIN) reads at 5 min intervals over 30 minutes. […]
(§3) Percent inhibition (IC50) curves were generated per compound tested, and data was analyzed using a 4-parameter logistic fit using GeneData Screener. The relative fluorescence unit (RFU) values were normalized to percent inhibition using the following equation: % inhibition=((HC−LC)−(compound−LC)/(HC−LC))*100 […]

Assay [3] has as its target T1, Factor XIa. Nature of the assay: Factor XIa inhibition assay (FLINT) with fluorophore-quencher pair peptide substrate.
Source text: Biological Example 1: Factor XIa Inhibition Assay Utilizing a Fluorophore-Quencher Pair Peptide Substrate
as §1
The Factor XIa FLINT assay was used with the following 5Fam-KLTRAETV-K5Tamra assay buffer: 50 mM Tris, pH 7.5, 100 mM NaCl, 5 mM CaCl2, 0.1 mg/mL BSA, 0.03% CHAPS. […]
Test compound(s) were run in an 11-point, 3-fold serial dilution with a final top compound concentration of 100 nM. […] The assay was run with kinetic (KIN) reads at 5 min intervals over 30 minutes. […]
as §3

Assay [4] deals with T2, human plasma kallikrein. Nature of the assay: Kinetic parameters of the peptide substrate with kallikrein (Michaelis-Menten fit).
Source text: as §2

Peptide text beside a SMILES is read from it. * marks the point of attachment. 5FAM = O=C1OC2(c3ccc(O)cc3Oc3cc(O)ccc32)c2ccc(C(=O)*)cc21; AMC = Cc1cc(=O)oc2cc(N*)ccc12; Cbz = O=C(OCc1ccccc1)* Where only a bound is given, the exact number is not on record here.

By Km is commonly meant the concentration of substrate that gives half-maximal velocity. Usually kcat stands for the number of substrate molecules converted per active site and unit of time at saturation. As a reminder, the IC50 is the concentration needed to halve the response being measured. Low values mean greater potency, high ones weaker potency.

T1 sequence (P03951 388-625 limits assumed): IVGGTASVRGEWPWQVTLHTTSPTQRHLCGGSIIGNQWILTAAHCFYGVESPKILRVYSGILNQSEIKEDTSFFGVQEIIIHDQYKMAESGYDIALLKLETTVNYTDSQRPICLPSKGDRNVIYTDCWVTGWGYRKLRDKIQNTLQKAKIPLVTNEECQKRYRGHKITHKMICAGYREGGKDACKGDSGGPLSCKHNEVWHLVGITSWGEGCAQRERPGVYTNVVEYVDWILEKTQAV
T1 sequence (P03951 19-387 partner limits assumed): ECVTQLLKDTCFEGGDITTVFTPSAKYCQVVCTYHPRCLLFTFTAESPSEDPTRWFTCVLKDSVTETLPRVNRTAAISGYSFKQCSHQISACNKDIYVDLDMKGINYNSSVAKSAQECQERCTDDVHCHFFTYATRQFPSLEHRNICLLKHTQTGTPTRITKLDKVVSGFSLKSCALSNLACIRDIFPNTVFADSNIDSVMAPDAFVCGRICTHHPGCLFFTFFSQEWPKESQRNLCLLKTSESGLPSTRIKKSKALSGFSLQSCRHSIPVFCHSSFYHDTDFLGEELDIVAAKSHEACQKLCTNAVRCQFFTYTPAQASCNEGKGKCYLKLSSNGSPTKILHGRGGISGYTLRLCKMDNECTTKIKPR

For the molecule “5Fam-KLTRAETV-K5Tamra (5FAM-KLTRAETV-{K(5-TAMRA)}) [fluorophore-quencher pair peptide substrate based on the Arg146 cleavage site of FXI, purchased from New England Peptide]”, in the assay with Factor XIa [1], the Ki was found to be 61600 nM, the Km worked out at 12.4 µM and the kcat was determined as 0.86 s⁻¹.
As to `NC(=O)c1ccc(NC(=O)[C@@H]2CC[C@H]3CCC(c4c(-n5cnnn5)ccc(Cl)c4F)=CC(=O)N32)cc1F` [ID No. 20, (3S,9aR)-N-(4-carbamoyl-3-fluorophenyl)-7-(3-chloro-2-fluoro-6-(1H-tetrazol-1-yl)phenyl)-5-oxo-2,3,5,8,9,9a-hexahydro-1H-pyrrolo[1,2-a]azepine-3-carboxamide], the IC50 at human plasma kallikrein [2] was 802 nM; on Factor XIa [3] (30 min preincubation, 15 μM 5Fam-KLTRAETV-K5Tamra substrate, top compound concentration 100 nM, kinetic read), over 100 nM. Besides, the Ki at Factor XIa [3] (same assay as Factor XIa IC50) was over 50 nM.
With `Cc1cc(=O)oc2cc(NC(=O)[C@H](CCCNC(=N)N)NC(=O)[C@@H]3CCCN3C(=O)CNC(=O)OCc3ccccc3)ccc12` [Z-Gly-Pro-Arg-AMC] (Cbz-Gly-Pro-Arg-{AMC}), the turnover number (kcat) at human plasma kallikrein [4] is 0.76 s⁻¹.

The values above are taken from patent US11958856B2, “Substituted 1,2,3,8,9,9a-hexahydro-5H-pyrrolo[1,2-a]azepin-5-ones as factor XIa inhibitors” (Janssen Pharmaceutica NV, priority 2021, dated 2024).
